Data taken from patent US20080227757A1, “Formulation for dermal application” (priority 2005, published 2008).

Legend:
[1] = Octanol-water distribution coefficient (log P), lipophily
Protocol: The lipophily value P gives low lipophility at a low value of the logarithm of P (log P), and a high value of the log P gives high lipophily. The distribution coefficient P is measured at pH 7.4 and 21° C. in octanol water.

[2] = Permeation of active ingredient from formulations through isolated human Stratum corneum (modified Franz cell); details: active ingredient in the inventive formulation
Protocol: To determine the permeation of an active ingredient from the inventive formulation compared to conventional formulations containing active ingredients pharmaceutical preparations containing 5-aminolevulinic acid were tested in vitro on isolated human skin.
Human Stratum corneum, originating from biopsies of plastic operations, was used as isolated human skin. Following the biopsy subcutaneous fat was removed and the skin was frozen in liquid nitrogen, then stored at −25° C. After gradual thawing the Stratum corneum was isolated by trypsination on filter paper, and impregnated with an aqueous 2% trypsin solution. After incubation at 37° C. for 24 h the Stratum corneum could be lifted off, incubated in a 0.01% aqueous solution trypsin inhibitor and then washed several times in water. This isolated horny layer was dried and stored at room temperature in the desiccator. For permeation examinations a modified Franz cell was used, the compartments of which were separated off through the Stratum corneum. Pretreatment of the Stratum corneum is done by total hydration in water and placement on a polycarbonate filter (Isopor membrane filter, type TMTP, 5.0 μm, Millipore) to boost mechanical stability. The donor compartment was filled with inventive or respectively comparative formulation containing 5-aminolevulinic acid, whereby 5-aminolevulinic acid at 10% by weight was contained in the formulations.
The preparation containing 5-aminolevulinic acid, procurable according to Example 2, was tested for permeation as inventive preparation, as compared to a formulation with conventional cream base according to the German Pharmacopoeia (70 parts water, 30 parts hydrophilic salve from 30 parts emulsifying cetylstearyl alcohol (type A), 35 parts viscid paraffin and 35 parts soft Vaseline), and in comparison to a formulation in dolgit microgel (5% by weight ibuprofen, in 2-propanol, dimethyl isosorbide, poloxamer, medium-chain triglycerides, lavender oil, neroli oil and water).
After application the quantity of active ingredient permeated through the skin was measured.

Compound	logP ([1]; octanol/water, pH 7.4)	log P ([1]; octanol water, pH 7.4, 21° C.)	permeation of the active ingredient from the inventive formulation through the human Stratum corneum [2]	other results
CCCCOC(=O)CCC(=O)CN [5-ALA-butylester, 5-aminolevulinic acid butyl ester]	1.42			
NCC(=O)CCC(=O)OC1CCCCC1 [5-ALA-cyclohexylester]		1.494		
CCOC(=O)CCC(=O)CN [5-ALA-ethylester]		0.8411		
CCCCCCOC(=O)CCC(=O)CN [5-ALA-hexylester]		1.839		
COC(=O)CCC(=O)CN [5-ALA-methylester, methyl ester of 5-aminolevulinic acid]				log P ([1]; pH 7.4): −0.9423
CCCCCCCCOC(=O)CCC(=O)CN [5-ALA-octylester]		2.6199		
NCC(=O)CCC(=O)O [Example 5-ALA, 5-aminolevulinic acid]	-1.52			
CC(=O)Oc1ccccc1C(=O)O [acetylsalicylic acid]	-1.15		improvement in permeation	
Clc1ccccc1C(c1ccccc1)(c1ccccc1)n1ccnc1 [clotrimazole]			improvement in permeation	logP ([1]; pH 7.4): 4.1
CC(=O)OCC(=O)[C@@]1(O)CC[C@H]2[C@@H]3CCC4=CC(=O)CC[C@]4(C)[C@H]3[C@@H](O)C[C@@]21C [hydrocortisone acetate]			improvement in permeation	logP ([1]; pH 7.4): 2.18
CN(C/C=C/C#CC(C)(C)C)Cc1cccc2ccccc12 [terbinafine]	3.3		improvement in permeation	
